Experimental data published in patent US12522576B2, “Polymorphs of D9-THC naphthoylester” (priority 2019, dated 2026).
Converted amounts (≈) assume the structure as drawn.

Tests used:
Gravimetric solubility = type: physicochemical; details: thermodynamic from solid
Description: Additional solids or solvents were added to visual solubility samples with vials less than 100 mg/mL to produce slurries at 20 and 50° C. for the subsequent equilibrium solubility assessment. The slurries were stirred at 20 and 50° C. overnight, filtered through 0.2 μm syringe filters and evaporated to dryness under reduced pressure at ambient temperature. Gravimetric solubility was calculated by dividing the dry solids residue mass (mg) by the solvent mass (g). The mg/g solubility values were then converted to mg/mL using solvent density.
The solubility of Group D acetone and DMF solvates were assessed in the corresponding solvents.

[1] = Competitive ripening (relative thermodynamic stability of non-solvated forms)
[2] = D9 solubility in the liquors at isolation temperature; type: physicochemical; details: organic solvent or mixture, thermodynamic from solid
Description: At the end of each experiment, suspensions were equilibrated at the isolation temperature (25 or 5° C.) for at least 18 hours and the solids and liquors separated by centrifugation at the isolation temperature. The Exo/D9/D8 ratio (Exo-D9-THC-naphthoylester impurity/D9-THC-naphthoylester/D8-THC-naphthoylester) was determined in both the isolated solids and the liquors, from which the % Exo-depletion in the isolated solids was calculated. Several solids were also isolated at elevated temperatures to assess the impact of the isolation temperature on Exo-impurity depletion.
In addition, the solubility of D9 in the liquors was determined in most of the explored solvents and used to estimate the yield.

## CCCCCc1cc(OC(=O)c2ccc3ccccc3c2)c2c(c1)OC(C)(C)[C@@H]1CCC(C)=C[C@@H]21 [Form B, (6aR,10aR)-6a,7,8,10a-tetrahydro-6,6,9-trimethyl-3-pentyl-6H-dibenzo[b,d]pyran-1-yl ester]
Gravimetric solubility; 20 °C, organic solvent or mixture, solvent Acetone/MeOH (1:3), RT, read-out: Gravimetric Solubility at RT
  solubility: ~9000 µg/mL (≈ 19.2 mM)
Gravimetric solubility; 20 °C, organic solvent or mixture, solvent BuOH/MeOH (1:3), RT, read-out: Gravimetric Solubility at RT
  solubility: ~6000 µg/mL (≈ 12.8 mM)
Gravimetric solubility; 20 °C, organic solvent or mixture, solvent EtOH, RT, read-out: Gravimetric Solubility at RT
  solubility: ~7000 µg/mL (≈ 14.9 mM)
Gravimetric solubility; 20 °C, organic solvent or mixture, solvent Heptane, RT, read-out: Gravimetric Solubility at RT
  solubility: ~33000 µg/mL (≈ 70.4 mM)
Gravimetric solubility; 20 °C, organic solvent or mixture, solvent IPA:water (9:1), RT, read-out: Gravimetric Solubility at RT
  solubility: ~3000 µg/mL (≈ 6.4 mM)
Gravimetric solubility; 20 °C, organic solvent or mixture, solvent IPA, RT, read-out: Gravimetric Solubility at RT
  solubility: ~7000 µg/mL (≈ 14.9 mM)
Gravimetric solubility; 20 °C, organic solvent or mixture, solvent MeCN, RT, read-out: Gravimetric Solubility at RT
  solubility: ~14000 µg/mL (≈ 29.9 mM)
Gravimetric solubility; 20 °C, organic solvent or mixture, solvent MeOH, RT, read-out: Gravimetric Solubility at RT
  solubility: ~3000 µg/mL (≈ 6.4 mM)
Gravimetric solubility; 20 °C, solvent Water, RT, read-out: Gravimetric Solubility at RT
  solubility: < 1000 µg/mL
Gravimetric solubility; organic solvent or mixture, solvent Acetone/MeOH (1:3), 50° C., read-out: Gravimetric Solubility at 50° C.
  solubility: ~41000 µg/mL (≈ 87.5 mM)
Gravimetric solubility; organic solvent or mixture, solvent BuOH/MeOH (1:3), 50° C., read-out: Gravimetric Solubility at 50° C.
  solubility: ~24000 µg/mL (≈ 51.2 mM)
Gravimetric solubility; organic solvent or mixture, solvent EtOH, 50° C., read-out: Gravimetric Solubility at 50° C.
  solubility: ~29000 µg/mL (≈ 61.9 mM)
Gravimetric solubility; organic solvent or mixture, solvent IPA:water (9:1), 50° C., read-out: Gravimetric Solubility at 50° C.
  solubility: ~18000 µg/mL (≈ 38.4 mM)
Gravimetric solubility; organic solvent or mixture, solvent IPA, 50° C., read-out: Gravimetric Solubility at 50° C.
  solubility: ~45000 µg/mL (≈ 96 mM)
Gravimetric solubility; organic solvent or mixture, solvent MeCN, 50° C., read-out: Gravimetric Solubility at 50° C.
  solubility: ~35000 µg/mL (≈ 74.7 mM)
Gravimetric solubility; organic solvent or mixture, solvent MeOH, 50° C., read-out: Gravimetric Solubility at 50° C.
  solubility: ~12000 µg/mL (≈ 25.6 mM)
Gravimetric solubility; solvent Water, 50° C., read-out: Gravimetric Solubility at 50° C.
  solubility: < 1000 µg/mL
[1]
  Relative thermodynamic stability: metastable form
[1]; Table 6 summary
  Nature (thermodynamic stability of crystal form): Metastable
[2]; 1,4-Dioxane/MeOH (1:9), 25 °C, batch 5, 1,4-Dioxane/MeOH (1:9), seed E/G, heat T 50, isolation T 25, SP 3, 4.8 mL/g
  solubility: 6000 µg/mL (≈ 12.8 mM)
[2]; Anisole/MeOH (1:9), 5 °C, batch 5, Anisole/MeOH (1:9), seed G, heat T 40, isolation T 5, SP 10, 30.0 mL/g
  solubility: 9800 µg/mL (≈ 20.9 mM)
[2]; Cyclohexanone/EtOH (1:9), 25 °C, batch 5, Cyclohexanone/EtOH (1:9), seed G/H, heat T 55, isolation T 25, SP 16, 5.0 mL/g
  solubility: 21100 µg/mL (≈ 45 mM)
[2]; Cyclohexanone/MeOH (1:9), 25 °C, batch 5, Cyclohexanone/MeOH (1:9), seed G/H, heat T 60, isolation T 25, SP 12, 10.0 mL/g
  solubility: 7600 µg/mL (≈ 16.2 mM)
[2]; DMF/MeOH (1:9), 25 °C, batch 5, DMF/MeOH (1:9), seed D, heat T 50, isolation T 25, SP 2, 8.9 mL/g
  solubility: 5200 µg/mL (≈ 11.1 mM)
[2]; DMF/MeOH (1:9), 25 °C, batch 5, DMF/MeOH (1:9), seed G, heat T 50, isolation T 25, SP 3, 9.4 mL/g
  solubility: 4700 µg/mL (≈ 10 mM)
[2]; DMF/MeOH (1:9), 25 °C, batch 5, DMF/MeOH (1:9), seed G, heat T 60, isolation T 25, SP 9, 10.0 mL/g
  solubility: 5100 µg/mL (≈ 10.9 mM)
[2]; DMSO/MeOH (1:9), 25 °C, batch 5, DMSO/MeOH (1:9), seed D, heat T 50, isolation T 25, SP 2, 8.2 mL/g
  solubility: 4100 µg/mL (≈ 8.75 mM)
[2]; DMSO/MeOH (1:9), 25 °C, batch 5, DMSO/MeOH (1:9), seed D/G, heat T 60, isolation T 25, SP 9, 10.0 mL/g
  solubility: 4200 µg/mL (≈ 8.96 mM)
[2]; DMSO/MeOH (1:9), 25 °C, batch 5, DMSO/MeOH (1:9), seed G, heat T 50, isolation T 25, SP 4, 9.4 mL/g
  solubility: 3700 µg/mL (≈ 7.9 mM)
[2]; DMSO/MeOH (3:7), 25 °C, batch 5, DMSO/MeOH (3:7), seed D, heat T 50, isolation T 25, SP 2, 7.1 mL/g
  solubility: 7500 µg/mL (≈ 16 mM)
[2]; DMSO/MeOH (3:7), 25 °C, batch 5, DMSO/MeOH (3:7), seed G, heat T 50, isolation T 25, SP 4, 5.2 mL/g
  solubility: 7000 µg/mL (≈ 14.9 mM)
[2]; DMSO/acetone/MeOH (1.5:1.5:7), 25 °C, batch 5, DMSO/acetone/MeOH (1.5:1.5:7), seed D, heat T 50, isolation T 25, SP 2, 5.0 mL/g
  solubility: 9100 µg/mL (≈ 19.4 mM)
[2]; DMSO/acetone/MeOH (1.5:1.5:7), 25 °C, batch 5, DMSO/acetone/MeOH (1.5:1.5:7), seed G, heat T 50, isolation T 25, SP 4, 5.1 mL/g
  solubility: 7200 µg/mL (≈ 15.4 mM)
[2]; EtOAc/EtOH (1:9), 25 °C, batch 5, EtOAc/EtOH (1:9), seed H, heat T 55, isolation T 25, SP 21, 10.0 mL/g
  solubility: 12000 µg/mL (≈ 25.6 mM)
[2]; EtOAc/MeOH (1:3), 5 °C, batch 5, EtOAc/MeOH (1:3), seed G, heat T 25, isolation T 5, SP 11, 30.0 mL/g
  solubility: 11200 µg/mL (≈ 23.9 mM)
[2]; IPA, 25 °C, batch 5, IPA, seed G/H, heat T 50, isolation T 25, SP 14, 10.0 mL/g
  solubility: 7300 µg/mL (≈ 15.6 mM)
[2]; IPA/water (95:5), 25 °C, batch 5, IPA/water (95:5), seed G/H, heat T 60, isolation T 25, SP 12, 10.0 mL/g
  solubility: 4500 µg/mL (≈ 9.6 mM)
[2]; MEK/IPA (1:9), 25 °C, batch 5, MEK/IPA (1:9), seed G/H, heat T 55, isolation T 25, SP 15, 5.0 mL/g
  solubility: 17200 µg/mL (≈ 36.7 mM)
[2]; MEK/MeOH (1:9), 25 °C, batch 5, MEK/MeOH (1:9), seed G/H, heat T 60, isolation T 25, SP 12, 10.0 mL/g
  solubility: 4500 µg/mL (≈ 9.6 mM)
[2]; MEK/MeOH (3:7), 5 °C, batch 5, MEK/MeOH (3:7), seed G, heat T 25, isolation T 5, SP 11, 30.0 mL/g
  solubility: 15800 µg/mL (≈ 33.7 mM)
[2]; MEK/MeOH (3:7), 25 °C, batch 5, MEK/MeOH (3:7), seed G, heat T 25, isolation T 25, SP 7, 30.0 mL/g
  solubility: 16800 µg/mL (≈ 35.8 mM)
[2]; MeOH, 25 °C, batch 5, MeOH, seed E/G, heat T 50, isolation T 25, SP 3, 9.8 mL/g
  solubility: 5000 µg/mL (≈ 10.7 mM)
[2]; Toluene/EtOH (5:95), 25 °C, batch 5, Toluene/EtOH (5:95), seed H, heat T 55, isolation T 25, SP 21, 12.0 mL/g
  solubility: 10300 µg/mL (≈ 22 mM)
[2]; Toluene/MeOH (1:9), 5 °C, batch 5, Toluene/MeOH (1:9), seed G, heat T 40, isolation T 5, SP 10, 30.0 mL/g
  solubility: 8700 µg/mL (≈ 18.6 mM)
[2]; crystallisation liquors over suspended solid, 5 °C, batch 5, p-Xylene/MeOH (1:9), seed G, heat T 25, isolation T 5, SP 11, 40.0 mL/g
  solubility: 9200 µg/mL (≈ 19.6 mM)
[2]; crystallisation liquors over suspended solid, 25 °C, batch 2, IPA/water (95:5), seed G/H, heat T 55, isolation T 25, SP 13, 10.0 mL/g
  solubility: 5600 µg/mL (≈ 11.9 mM)
[2]; crystallisation liquors over suspended solid, 25 °C, batch 2, IPA/water (99:1), seed G/H, heat T 55, isolation T 25, SP 13, 10.0 mL/g
  solubility: 7300 µg/mL (≈ 15.6 mM)
[2]; crystallisation liquors over suspended solid, 25 °C, batch 5, Anisole/MeOH (1:9), seed G, heat T 40, isolation T 25, SP 8, 30.0 mL/g
  solubility: 9600 µg/mL (≈ 20.5 mM)
[2]; crystallisation liquors over suspended solid, 25 °C, batch 5, Cyclohexanone/IPA (1:9), seed G/H, heat T 45, isolation T 25, SP 15, 2.5 mL/g
  solubility: 59200 µg/mL (≈ 126 mM)
[2]; crystallisation liquors over suspended solid, 25 °C, batch 5, EtOAc/IPA (1:9), seed G/H, heat T 55, isolation T 25, SP 15, 7.4 mL/g
  solubility: 15100 µg/mL (≈ 32.2 mM)
[2]; crystallisation liquors over suspended solid, 25 °C, batch 5, EtOAc/MeOH (1:3), seed G, heat T 40, isolation T 25, SP 8, 30.0 mL/g
  solubility: 11300 µg/mL (≈ 24.1 mM)
[2]; crystallisation liquors over suspended solid, 25 °C, batch 5, EtOH, seed E/G, heat T 50, isolation T 25, SP 3, 9.6 mL/g
  solubility: 6900 µg/mL (≈ 14.7 mM)
[2]; crystallisation liquors over suspended solid, 25 °C, batch 5, MEK/EtOH (1:9), seed G/H, heat T 55, isolation T 25, SP 15, 10.0 mL/g
  solubility: 11200 µg/mL (≈ 23.9 mM)
